System: MV-4-11 cells
Test: Gene expression microarray analysis (Affymetrix PrimeView) and GSEA
Assay type: cell-based, human
Parameters: RFU PODN (11730768_x_at) / Fold change /veh PODN (11730768_x_at) / RFU LINC00158 (11744669_a_at) / Fold change /veh LINC00158 (11744669_a_at) / RFU DUSP10 (11751237_a_at) / Fold change /veh DUSP10 (11751237_a_at) / RFU ID3 (11757404_x_at) / Fold change /veh ID3 (11757404_x_at) / RFU PLEKHG5 (11737974_s_at) / Fold change /veh PLEKHG5 (11737974_s_at) / RFU LRRC4B (11730491_at) / Fold change /veh LRRC4B (11730491_at) / RFU GIMAP4 (11747438_a_at) / Fold change /veh GIMAP4 (11747438_a_at) / RFU KRT8 (11758183_x_at) / Fold change /veh KRT8 (11758183_x_at) / RFU CNN1 (11734310_a_at) / Fold change /veh CNN1 (11734310_a_at) / RFU VPS37D (11726825_at) / Fold change /veh VPS37D (11726825_at) / RFU C10orf10 (11716522_x_at) / Fold change /veh C10orf10 (11716522_x_at) / RFU KIR2DL2 /// KIR2DL4 /// KIR2DL5A /// KIR2DL5B /// KIR2DS1 /// KIR2DS2 /// KIR2DS3 /// KIR2DS4 /// KIR3DL3 /// KIR3DL3 /// KIR3DS1 (11738374_at) / Fold change /veh KIR2DL2 /// KIR2DL4 /// KIR2DL5A /// KIR2DL5B /// KIR2DS1 /// KIR2DS2 /// KIR2DS3 /// KIR2DS4 /// KIR3DL3 /// KIR3DL3 /// KIR3DS1 (11738374_at) / RFU C1QL1 (11718748_at) / Fold change /veh C1QL1 (11718748_at) / RFU TMPRSS4 (11747572_a_at) / Fold change /veh TMPRSS4 (11747572_a_at) / RFU HAMP (11756126_x_at) / Fold change /veh HAMP (11756126_x_at) / RFU RNFT2 (11725882_a_at) / Fold change /veh RNFT2 (11725882_a_at) / RFU NR4A2 (11747474_a_at) / Fold change /veh NR4A2 (11747474_a_at) / RFU ABCC12 (11746883_a_at) / Fold change /veh ABCC12 (11746883_a_at) / RFU TMEM136 (11760407_x_at) / Fold change /veh TMEM136 (11760407_x_at) / RFU CLDN22 /// WWC2 (11732394_at) / Fold change /veh CLDN22 /// WWC2 (11732394_at) / RFU HLA-DPB1 (11760878_x_at) / Fold change /veh HLA-DPB1 (11760878_x_at) / RFU SPINT1 (11716480_a_at) / Fold change /veh SPINT1 (11716480_a_at) / RFU GAP43 (11754022_s_at) / Fold change /veh GAP43 (11754022_s_at) / RFU A4GNT (11735810_at) / Fold change /veh A4GNT (11735810_at) / RFU PRB3 (11715151_x_at) / Fold change /veh PRB3 (11715151_x_at) / RFU TUBB4B (11761932_at) / Fold change /veh TUBB4B (11761932_at) / RFU CAPN14 (11732068_a_at) / Fold change /veh CAPN14 (11732068_a_at) / RFU TMCC2 (11721928_a_at) / Fold change /veh TMCC2 (11721928_a_at) / RFU IRGQ (11745062_a_at) / Fold change /veh IRGQ (11745062_a_at) / RFU FAM174B (11720279_a_at) / Fold change /veh FAM174B (11720279_a_at) / RFU TMPRSS4 (11748680_a_at) / Fold change /veh TMPRSS4 (11748680_a_at) / RFU FAM212B (11763350_a_at) / Fold change /veh FAM212B (11763350_a_at) / RFU PLEKHG5 (11743358_a_at) / Fold change /veh PLEKHG5 (11743358_a_at) / RFU ZSCAN30 (11745921_a_at) / Fold change /veh ZSCAN30 (11745921_a_at) / RFU CMKLR1 (11741424_a_at) / Fold change /veh CMKLR1 (11741424_a_at) / RFU LOC101060620 /// MAPK8IP1 (11723275_at) / Fold change /veh LOC101060620 /// MAPK8IP1 (11723275_at) / RFU SPTSSB (11747773_x_at) / Fold change /veh SPTSSB (11747773_x_at) / RFU PRSS12 (11739890_at) / Fold change /veh PRSS12 (11739890_at) / RFU BIN1 (11741810_x_at) / Fold change /veh BIN1 (11741810_x_at) / RFU WNT11 (11732464_a_at) / Fold change /veh WNT11 (11732464_a_at) / RFU C10orf10 (11716521_a_at) / Fold change /veh C10orf10 (11716521_a_at) / RFU C5orf56 (11738089_at) / Fold change /veh C5orf56 (11738089_at) / RFU CYB561 (11721691_x_at) / Fold change /veh CYB561 (11721691_x_at) / RFU ANKRD19P (11752326_a_at) / Fold change /veh ANKRD19P (11752326_a_at) / RFU OR2T12 /// OR2T33 /// OR2T8 (11738714_s_at) / Fold change /veh OR2T12 /// OR2T33 /// OR2T8 (11738714_s_at) / RFU VCAN (11748164_a_at) / Fold change /veh VCAN (11748164_a_at) / RFU JSRP1 (11732532_at) / Fold change /veh JSRP1 (11732532_at) / RFU KRTAP10-11 (11738290_x_at) / Fold change /veh KRTAP10-11 (11738290_x_at) / RFU MYO3A (11730013_a_at) / Fold change /veh MYO3A (11730013_a_at) / RFU EBF3 (11725865_a_at) / Fold change /veh EBF3 (11725865_a_at) / RFU CAMK2N1 (11719241_x_at) / Fold change /veh CAMK2N1 (11719241_x_at) / RFU C5orf56 (11738088_a_at) / Fold change /veh C5orf56 (11738088_a_at) / RFU OLFML3 (11715873_a_at) / Fold change /veh OLFML3 (11715873_a_at) / RFU LOC100653217 /// NTM (11731650_a_at) / Fold change /veh LOC100653217 /// NTM (11731650_a_at) / RFU MAPK11 (11762145_a_at) / Fold change /veh MAPK11 (11762145_a_at) / RFU FIZ1 (11724087_x_at) / Fold change /veh FIZ1 (11724087_x_at) / RFU OASL (11726364_x_at) / Fold change /veh OASL (11726364_x_at) / RFU SOX15 (11748057_x_at) / Fold change /veh SOX15 (11748057_x_at) / RFU CD79A (11719716_a_at) / Fold change /veh CD79A (11719716_a_at) / RFU HIST1H1D (11736915_at) / Fold change /veh HIST1H1D (11736915_at) / RFU CASKIN2 (11723855_a_at) / Fold change /veh CASKIN2 (11723855_a_at) / RFU LOC730098 (11760151_x_at) / Fold change /veh LOC730098 (11760151_x_at) / RFU OR4N2 (11742367_at) / Fold change /veh OR4N2 (11742367_at) / RFU PRRT2 (11749266_a_at) / Fold change /veh PRRT2 (11749266_a_at) / RFU SNX32 (11753110_a_at) / Fold change /veh SNX32 (11753110_a_at) / RFU CDHR5 (11726645_a_at) / Fold change /veh CDHR5 (11726645_a_at) / RFU RCAN1 (11760418_a_at) / Fold change /veh RCAN1 (11760418_a_at) / RFU FAM167A (11723789_a_at) / Fold change /veh FAM167A (11723789_a_at) / RFU FAM26E (11764081_at) / Fold change /veh FAM26E (11764081_at) / RFU ISYNA1 (11749810_s_at) / Fold change /veh ISYNA1 (11749810_s_at) / RFU ACY1 (11761880_at) / Fold change /veh ACY1 (11761880_at) / RFU 11764098_at / Fold change /veh 11764098_at / RFU SAMD14 (11745864_x_at) / Fold change /veh SAMD14 (11745864_x_at) / RFU NPB (11741838_a_at) / Fold change /veh NPB (11741838_a_at) / RFU TMPRSS6 (11731388_a_at) / Fold change /veh TMPRSS6 (11731388_a_at) / RFU KRTAP10-2 (11738614_at) / Fold change /veh KRTAP10-2 (11738614_at) / RFU ARHGAP8 /// PRR5-ARHGAP8 (11727945_x_at) / Fold change /veh ARHGAP8 /// PRR5-ARHGAP8 (11727945_x_at) / RFU KRTAP5-7 /// NADSYN1 (11734609_at) / Fold change /veh KRTAP5-7 /// NADSYN1 (11734609_at) / RFU RASL12 (11751679_a_at) / Fold change /veh RASL12 (11751679_a_at) / RFU CDKN2B (11736163_a_at) / Fold change /veh CDKN2B (11736163_a_at) / RFU PRF1 (11729649_at) / Fold change /veh PRF1 (11729649_at) / RFU, ZNF638 /// ZNF638-IT1 / Fold change vs veh, ZNF638 /// ZNF638-IT1 / RFU, PANK3 / Fold change vs veh, PANK3 / RFU, SH3YL1 / Fold change vs veh, SH3YL1 / RFU, ZEB2 / Fold change vs veh, ZEB2 / RFU, NRIP1 / Fold change vs veh, NRIP1 / RFU, PTTG1IP / Fold change vs veh, PTTG1IP / RFU, CAPN2 / Fold change vs veh, CAPN2 / RFU, MED14 / Fold change vs veh, MED14 / RFU, SNORA58 / Fold change vs veh, SNORA58 / RFU, C1orf63 / Fold change vs veh, C1orf63 / RFU, LRRFIP1 / Fold change vs veh, LRRFIP1 / RFU, NDUFAF7 / Fold change vs veh, NDUFAF7 / RFU, SLC12A2 / Fold change vs veh, SLC12A2 / RFU, IBTK / Fold change vs veh, IBTK / RFU, ESF1 / Fold change vs veh, ESF1 / Fold change vs veh, TMEM50B / RFU, TAOK1 / Fold change vs veh, TAOK1 / RFU, ACBD3 / Fold change vs veh, ACBD3 / RFU, TMA16 / Fold change vs veh, TMA16 / RFU, RWDD3 / Fold change vs veh, RWDD3 / RFU, BCAT1 / Fold change vs veh, BCAT1 / RFU, EDEM3 / Fold change vs veh, EDEM3 / RFU, TMEM33 / Fold change vs veh, TMEM33 / RFU, WDR75 / Fold change vs veh, WDR75 / RFU, AHCTF1 / Fold change vs veh, AHCTF1 / RFU, TFRC / Fold change vs veh, TFRC / RFU, ZDHHC17 / Fold change vs veh, ZDHHC17 / RFU, NOM1 / Fold change vs veh, NOM1 / RFU, ARL8B / Fold change vs veh, ARL8B / RFU, ZBTB11 / Fold change vs veh, ZBTB11 / RFU, TAMM41 / Fold change vs veh, TAMM41 / RFU, KIAA1704 /// LOC100996395 / Fold change vs veh, KIAA1704 /// LOC100996395 / RFU, ING1 / Fold change vs veh, ING1 / RFU, TRMT61B / Fold change vs veh, TRMT61B / RFU, FUBP3 / Fold change vs veh, FUBP3 / RFU, TP53 / Fold change vs veh, TP53 / RFU, TNKS2 / Fold change vs veh, TNKS2 / RFU, ZFP14 / Fold change vs veh, ZFP14 / RFU, ACTR2 / Fold change vs veh, ACTR2 / RFU, PPP3R1 / Fold change vs veh, PPP3R1 / RFU, PIK3R1 / Fold change vs veh, PIK3R1 / RFU, HNRNPA1 / Fold change vs veh, HNRNPA1 / RFU, RNF170 / Fold change vs veh, RNF170 / RFU, ZNF28 / Fold change vs veh, ZNF28 / RFU, RNGTT / Fold change vs veh, RNGTT / RFU, OGT / Fold change vs veh, OGT / RFU, BRD1 / Fold change vs veh, BRD1 / RFU, MARS / Fold change vs veh, MARS / RFU, ZNF655 / Fold change vs veh, ZNF655 / RFU, FAHD1 / Fold change vs veh, FAHD1 / RFU, BDP1 / Fold change vs veh, BDP1 / RFU, LRRCC1 / Fold change vs veh, LRRCC1 / RFU, ARID1A / Fold change vs veh, ARID1A / RFU, ZNF146 / Fold change vs veh, ZNF146 / RFU, ZNF330 / Fold change vs veh, ZNF330 / RFU, GPN3 / Fold change vs veh, GPN3 / RFU, C9orf123 / Fold change vs veh, C9orf123 / RFU, N4BP2L2 / Fold change vs veh, N4BP2L2 / RFU, ARFIP1 / Fold change vs veh, ARFIP1 / RFU, FAM179B / Fold change vs veh, FAM179B / RFU, BCL10 / Fold change vs veh, BCL10 / RFU, UHRF1BP1L / Fold change vs veh, UHRF1BP1L / RFU, BET1 / Fold change vs veh, BET1 / RFU, CNOT2 / Fold change vs veh, CNOT2 / RFU, ZNF268 / Fold change vs veh, ZNF268 / Fold change vs veh, ZNF507 / RFU, DGCR2 / Fold change vs veh, DGCR2 / RFU, WDSUB1 / Fold change vs veh, WDSUB1 / Fold change vs veh, HSP90B1 /// MIR3652 / RFU, ADSS / Fold change vs veh, ADSS / RFU, GK / Fold change vs veh, GK / RFU, ZNF148 / Fold change vs veh, ZNF148 / RFU, TAF9 / Fold change vs veh, TAF9 / RFU, SLC1A5 / Fold change vs veh, SLC1A5 / RFU, SLMO2 / Fold change vs veh, SLMO2 / RFU, ABCC4 / Fold change vs veh, ABCC4 / RFU, LOC101060439 /// RAP1B / Fold change vs veh, LOC101060439 /// RAP1B / RFU, RFX7 / Fold change vs veh, RFX7 / RFU, GTPBP10 / Fold change vs veh, GTPBP10 / RFU, CNEP1R1 / Fold change vs veh, CNEP1R1 / RFU, BIVM-ERCC5 /// ERCC5 / Fold change vs veh, BIVM-ERCC5 /// ERCC5 / RFU, ILF3 / Fold change vs veh, ILF3 / RFU 11762660_at / Fold change /veh 11762660_at / RFU VCAN (11757783_s_at) / Fold change /veh VCAN (11757783_s_at) / RFU DDX43 (11728927_at) / Fold change /veh DDX43 (11728927_at) / RFU KRT8 (11758188_x_at) / Fold change /veh KRT8 (11758188_x_at) / RFU NKD1 (11759106_at) / Fold change /veh NKD1 (11759106_at) / RFU SRD5A1 (11742802_a_at) / Fold change /veh SRD5A1 (11742802_a_at) / RFU TPSAB1 /// TPSB2 (11721975_s_at) / Fold change /veh TPSAB1 /// TPSB2 (11721975_s_at) / RFU GSTM3 (11746129_a_at) / Fold change /veh GSTM3 (11746129_a_at) / RFU IL23R (11737362_x_at) / Fold change /veh IL23R (11737362_x_at) / RFU TMEM51 (11727254_a_at) / Fold change /veh TMEM51 (11727254_a_at) / RFU PIWIL2 (11732686_x_at) / Fold change /veh PIWIL2 (11732686_x_at) / RFU ORM1 (11744905_x_at) / Fold change /veh ORM1 (11744905_x_at) / RFU CCDC152 (11743942_at) / Fold change /veh CCDC152 (11743942_at) / RFU ECM1 (11717891_a_at) / Fold change /veh ECM1 (11717891_a_at) / RFU IL23R (11748794_a_at) / Fold change /veh IL23R (11748794_a_at) / RFU TNFAIP8L3 (11732012_x_at) / Fold change /veh TNFAIP8L3 (11732012_x_at) / RFU MBOAT4 (11741988_at) / Fold change /veh MBOAT4 (11741988_at) / RFU 11764193_at / Fold change /veh 11764193_at / RFU TMEM53 (11763286_at) / Fold change /veh TMEM53 (11763286_at) / RFU MAGEB2 (11727129_at) / Fold change /veh MAGEB2 (11727129_at) / RFU TMEM200A (11744735_a_at) / Fold change /veh TMEM200A (11744735_a_at) / RFU CCDC152 (11751479_a_at) / Fold change /veh CCDC152 (11751479_a_at) / RFU FAM211A (11726209_a_at) / Fold change /veh FAM211A (11726209_a_at) / RFU RGS16 (11746705_a_at) / Fold change /veh RGS16 (11746705_a_at) / RFU VCAN (11755009_s_at) / Fold change /veh VCAN (11755009_s_at) / RFU RHOB (11743442_s_at) / Fold change /veh RHOB (11743442_s_at) / RFU RGS16 (11720943_a_at) / Fold change /veh RGS16 (11720943_a_at) / RFU RGS16 (11720944_at) / Fold change /veh RGS16 (11720944_at) / RFU, VPS4B / Fold change vs veh, VPS4B / RFU, CREB1 / Fold change vs veh, CREB1 / RFU, DNAJC13 / Fold change vs veh, DNAJC13 / RFU, GNAQ / Fold change vs veh, GNAQ / RFU, CDK5R1 / Fold change vs veh, CDK5R1 / RFU, ZRANB3 / Fold change vs veh, ZRANB3 / RFU, CUL4A / Fold change vs veh, CUL4A / RFU, CCNY / Fold change vs veh, CCNY / RFU, UFL1 / Fold change vs veh, UFL1 / RFU, COG3 / Fold change vs veh, COG3 / RFU, DIAPH2 / Fold change vs veh, DIAPH2 / RFU, SKA2 / Fold change vs veh, SKA2 / RFU, AFF3 / Fold change vs veh, AFF3 / RFU, LMF1 / Fold change vs veh, LMF1 / RFU, IPO11 / Fold change vs veh, IPO11 / RFU, DFFB / Fold change vs veh, DFFB / RFU, FOXP1 / Fold change vs veh, FOXP1 / RFU, CARD8 / Fold change vs veh, CARD8 / RFU, STRN3 / Fold change vs veh, STRN3 / RFU, ADK / Fold change vs veh, ADK / RFU, RASSF2 / Fold change vs veh, RASSF2 / RFU, WIPF1 / Fold change vs veh, WIPF1 / RFU, LARP1B / Fold change vs veh, LARP1B / RFU, RASA1 / Fold change vs veh, RASA1 / RFU, RB1 / Fold change vs veh, RB1 / RFU, PPFIA1 / Fold change vs veh, PPFIA1 / RFU, MAT2A / Fold change vs veh, MAT2A / RFU, CCT5 / Fold change vs veh, CCT5 / RFU, WDR92 / Fold change vs veh, WDR92 / RFU, CUX1 / Fold change vs veh, CUX1 / RFU, TTC7A / Fold change vs veh, TTC7A / RFU, TMEM135 / Fold change vs veh, TMEM135 / RFU, DEPTOR / Fold change vs veh, DEPTOR / RFU, CPM / Fold change vs veh, CPM / RFU, DNAJB6 / Fold change vs veh, DNAJB6 / RFU, CACNA2D3 / Fold change vs veh, CACNA2D3 / RFU, DTX4 / Fold change vs veh, DTX4 / RFU, TFCP2 / Fold change vs veh, TFCP2 / RFU, GMCL1 /// GMCL1P1 / Fold change vs veh, GMCL1 /// GMCL1P1 / RFU, AEBP2 / Fold change vs veh, AEBP2 / RFU, SNHG1 /// SNORD22 /// SNORD25 /// SNORD26 /// SNORD27 /// SNORD28 /// SNORD29 /// SNORD31 / Fold change vs veh, SNHG1 /// SNORD22 /// SNORD25 /// SNORD26 /// SNORD27 /// SNORD28 /// SNORD29 /// SNORD31 / Fold change (Aza/veh), C12orf56 (ProbeSet 11735607_a_at) / Fold change (ACY-1035/veh), C12orf56 (ProbeSet 11735607_a_at) / Fold change (Aza/veh), FGFR1OP (ProbeSet 11751329_s_at) / Fold change (ACY-1035/veh), FGFR1OP (ProbeSet 11751329_s_at) / Fold change (Aza/veh), VPS36 (ProbeSet 11739960_a_at) / Fold change (ACY-1035/veh), VPS36 (ProbeSet 11739960_a_at) / RFU SYPL1 (11715823_x_at) / Fold change /veh SYPL1 (11715823_x_at) / RFU IGFBP7 (11715501_s_at) / Fold change /veh IGFBP7 (11715501_s_at) / RFU REEP3 (11722064_at) / Fold change /veh REEP3 (11722064_at) / RFU IGLL1 (11728026_x_at) / Fold change /veh IGLL1 (11728026_x_at): dose or concentration left out as unconfirmed
Conditions: MV-4-11 cells, 48 hours

Nc1ccc(-c2cccs2)cc1NC(=O)c1ccc2c(c1)cc(C1CC1)n2CCN1CCOCC1 [ACY-1035]
RFU VPS37D (11726825_at): 17.46 RFU

— paper PMC5218480 (PLoS ONE, 2017)
